# Values of other authors, collected in patent publication US4981869A, “Xanthates as antitumor agents” (priority 1980, dated 1991).
# System: Herpes virus
# Conditions: two immunosuppressed patients; Burns et al., The Lancet, Feb. 20, 1982; cited from earlier work
smiles,measurement,value
Nc1nc2c(ncn2COCCO)c(=O)[nH]1 [Acyclovir],susceptibility of herpes virus mutants arising under treatment,considerably less susceptible to treatment with that particular drug than the initially-recognized virus
